Entries after “also recorded” stand apart in the source; their conditions may differ.
How the values were obtained:
[1] = tested on: panel of cell lines (HCC-1806, HCC-1937, BT-549, MDA-MB-157, MCF-7, CAL-51, MDA-MB-453, ZR-75-1, OVCAR-3, OVCAR-5); experiment: 96 h cell growth assay (Example 19); type: cell-based; conditions: Homo sapiens, KIF18A inhibitor-sensitive cells (e.g., OVCAR-3 and BT-549), read-out: Mean Count EC50
Experimental: KIF18A inhibitor cancer cell line sensitivity profiles were determined for KIF18A inhibitor Compounds C9 and C11. Cells of various cancer cell lines were treated with DMSO or increasing concentrations of C9 or C11 for 96 h. The concentration-response profiles of some cancer cell lines (including, e.g., BT-549, OVCAR-3) for C11 were similar. […] Cancer cell lines CAL-51, MDA-MG-453 and OVCAR-5 were insensitive to C9 and C11.
Cell growth assay. A panel of cell lines (HCC-1806, HCC-1937, BT-549, MDA-MB-157, MCF-7, CAL-51, MDA-MB-453, ZR-75-1, OVCAR-3, OVCAR-5) were seeded in 96-well plate at densities optimized for 96 h cell growth assay. The next day, cells were treated with DMSO or one of the following compounds: KIF18A Inhibitor Compounds C9 and C11, or palbociclib, with top concentration of 6 μM (19-point concentration range) using staggered dose method. After 96 h, cells were fixed, stained, imaged, and analyzed as described above. Valid nuclear object counts were determined for each well and Count POC value was computed using the following formula [Count POC=(valid nuclear object count in treated well)+(valid nuclear object count in DMSO treated wells)×100]. Concentration-response curve-fitting was performed by 4-parameter non-linear regression equation using GraphPad Prism 7.05. Mean Count EC50 value was computed for each cell line from two independent experiments run in duplicate. […]

MDA-MB-157 cells = experiment: pH3 and PCM spot EC50 determination; conditions: pH3 and PCM spot EC50 values
[2] = target: T1, human KIF18A (residues 1-467) (Homo sapiens, UniProt Q8NI77); experiment: KIF18A MT-ATPase motor activity, ADP-Glo luminescence assay (Example 19); type: biochemical; conditions: human KIF18A 4 nM, 30 μM ATP; three independent experiments; read-out: IC50, KIF18A motor activity (MT-ATPase)
T1 construct: human KIF18A (residues 1-467, 4 nM); made in house
Experimental: A trio of KIF18A inhibitors (Compound C9, Compound C11, and Compound C12) were synthesized and tested in vitro for KIF18A inhibitory activity. […] The values represent mean t SEM from three independent experiments. […] As in vivo studies in mice were planned, the mouse KIF18A inhibitory effects of Compound C9 and C12 were assayed.
KIF18A compounds C9, C11, C12 were 2-fold serially diluted over a 22-point concentration range in DMSO using 384-well plate (Corning). Recombinant truncated kinesin motor proteins (human KIF18A (residues 1-467, 4 nM), mouse KIF18A (residues 1-467, 4 nM)) were expressed and purified. ADP-Glo luminescence assay (Promega) was used to measure the MT-ATPase motor activity. Porcine brain MTs were procured from Cytoskeleton Inc. Compounds were pre-incubated for <30 min in reaction buffer (15 mM Tris, pH 7.5, 10 mM MgCl2, 0.01% Pluronic F-68, 2% DMSO, 1 μM paclitaxel, 30 μg/mL MTs) with motor proteins at concentrations indicated above, 30 μM ATP was added to initiate the enzymatic reaction for 15 min at room temperature (RT). ADP-Glo reagents were added according to manufactures protocol, the luminescence intensity proportional to ADP present was measured using an EnVision plate reader (Perkin Elmer). Raw luminescence signal data was normalized to POC (percentage of positive control) and then Activity (%) was computed [POC=100×(sample signal−negative control signal)+(positive control signal−negative control signal). Activity (%)=POC−100]. The positive control (enzyme+substrate) and negative control (substrate alone) had equivalent concentrations of DMSO. Curve-fitting and IC50 values were determined by 4-parameter non-linear regression equation (variable slope) using GraphPad Prism 7.05 (GraphPad Software).

[3] = tested on: human bone marrow mononuclear cells (HBMNC); experiment: BrdU cell cycle analysis and live cell count in normal cells; type: cell-based; conditions: two normal donors; for BrdU incorporation (cell cycle analysis) relative to DMSO/vehicle control: 48 h, C9, C11, palbociclib 1 μM, ispinesib 0.05 μM, paclitaxel; for live cell count relative to vehicle control: 96 hours
Experimental: The effect KIF18A inhibitor treatment has on proliferation of normal somatic cells (e.g., not neoplastic cells) was tested by assaying proliferation of human bone marrow mononuclear cells (HBMNCs), primary human foreskin fibroblast cells (hFSF) and human mammary epithelial cells via a 5-bromo-2′-deoxyuridine (BrdU) incorporation assay in which BrdU, an analog of the nucleoside thymidine, is used to identify proliferating cells (Payton et. al., Molecular Cancer Therapeutics, 17(12):2575-85 (2018)). Cells were analyzed on BD LSRFortessa flow cytometer using BD FACSDiva software (BD Biosciences), and post-acquisition data analysis was performed using FSC-Express software (De Novo). The percentage of BrdU positive gated events on the stacked DNA content histograms were reported.
To further examine the effects of KIF18A inhibitor treatment on HBMNC, two normal donors were assessed using the BrdU coupled cell cycle assay and cell count assay (96 hours) was. […] In particular, the amount of BrdU-stained proliferating cells treated with Ispinesib, paclitaxel, or a CDK 4/6 inhibitor (palbociclib) was far less than the amount of vehicle control-treated BrdU-stained cells. […] KIF18A inhibitor treatment was also analyzed for impact on live cell count. After 96 hours, live cells were counted by Vi-CELL XR Cell Viability Analyzer (Beckman Coulter).
To investigate whether KIF18A inhibitors could circumvent this normal cell toxicity barrier, we examined the effects of Compounds C9 and C11 on a panel of cycling normal somatic cell types. First, we treated human bone marrow mononuclear cells (HBMNC) from two normal donors with DMSO, Compound C9 and C11 at 1 μM, ispinesib at 0.05 μM, paclitaxel at 0.05 μM, or palbociclib at 1 μM for 48 h (cell cycle) or 96 h (cell growth).
BrdU and cell cycle analysis. Human bone marrow mononuclear cells (HBMNCs) from two normal donors (#37612, #37534) were cultured for 8 days in defined media as previously described (Payton et al 2018). HBMNCs were seeded in 24-well plate at 1.2×10^6 cells per well in duplicate plates. Cells were treated with DMSO, Compound C9 (1 μM), Compound C11 (1 μM), ispinesib (0.05 μM), paclitaxel ([…]), or palbociclib (1 μM). Cells were collected at 48 h (cell cycle) and 96 h (cell growth). The first set of plates were pulsed with BrdU for 2 h and processing for BrdU cell cycle analysis as previously described (Payton et al 2018). Cells were analyzed on BD LSRFortessa flow cytometer running BD FACSDiva software and post-acquisition data analysis was performed using FSC-Express software. Data was reported for the percentage of BrdU and subG1 gated populations. The second set of plates were collected, and cells counted using Vi-CELL XR Cell Viability Analyzer (Beckman Coulter).

T1 sequence (Q8NI77 1-467): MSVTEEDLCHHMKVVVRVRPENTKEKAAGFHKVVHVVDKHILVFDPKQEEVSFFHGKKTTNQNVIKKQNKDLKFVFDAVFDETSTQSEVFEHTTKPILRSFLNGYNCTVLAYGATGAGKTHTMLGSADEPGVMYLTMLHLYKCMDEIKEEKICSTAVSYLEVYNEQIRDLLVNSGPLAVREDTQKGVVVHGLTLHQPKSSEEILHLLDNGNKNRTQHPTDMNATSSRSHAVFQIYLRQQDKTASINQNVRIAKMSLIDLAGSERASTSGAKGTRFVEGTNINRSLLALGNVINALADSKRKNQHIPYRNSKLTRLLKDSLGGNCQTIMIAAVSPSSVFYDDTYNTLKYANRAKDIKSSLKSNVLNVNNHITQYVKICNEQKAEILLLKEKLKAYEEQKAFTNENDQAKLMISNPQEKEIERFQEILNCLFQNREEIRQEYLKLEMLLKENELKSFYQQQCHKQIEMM
T1 sequence (P02550 whole entry partner, the tested form may be a part): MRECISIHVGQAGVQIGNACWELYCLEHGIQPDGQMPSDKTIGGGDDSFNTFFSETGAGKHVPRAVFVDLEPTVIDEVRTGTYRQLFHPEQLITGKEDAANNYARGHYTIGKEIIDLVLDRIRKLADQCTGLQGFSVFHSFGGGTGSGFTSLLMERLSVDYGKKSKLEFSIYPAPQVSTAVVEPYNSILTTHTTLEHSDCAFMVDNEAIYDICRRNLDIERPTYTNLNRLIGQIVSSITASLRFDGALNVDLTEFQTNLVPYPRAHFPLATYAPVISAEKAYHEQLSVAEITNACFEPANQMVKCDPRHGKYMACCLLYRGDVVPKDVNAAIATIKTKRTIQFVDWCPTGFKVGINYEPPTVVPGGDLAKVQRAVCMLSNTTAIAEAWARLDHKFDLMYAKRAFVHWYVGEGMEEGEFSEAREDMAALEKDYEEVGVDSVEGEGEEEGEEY
T1 sequence (P02554 whole entry partner, the tested form may be a part): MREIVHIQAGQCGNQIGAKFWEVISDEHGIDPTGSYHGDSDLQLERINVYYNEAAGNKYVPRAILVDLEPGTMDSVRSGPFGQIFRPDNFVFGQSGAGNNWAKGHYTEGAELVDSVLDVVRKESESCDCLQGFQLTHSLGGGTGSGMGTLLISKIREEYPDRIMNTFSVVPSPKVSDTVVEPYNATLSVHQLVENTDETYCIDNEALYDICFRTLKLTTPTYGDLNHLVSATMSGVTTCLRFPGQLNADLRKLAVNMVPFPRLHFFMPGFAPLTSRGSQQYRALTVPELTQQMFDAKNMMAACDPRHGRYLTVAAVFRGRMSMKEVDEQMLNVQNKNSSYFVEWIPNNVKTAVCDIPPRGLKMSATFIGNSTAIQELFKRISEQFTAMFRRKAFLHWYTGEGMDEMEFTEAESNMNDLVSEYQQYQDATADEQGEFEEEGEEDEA

Compound	EC50 [1] [µM]	improvement of cell potency relative to a control compound (MDA-MB-157 cells) [fold]	IC50 [2] [µM]	BrdU incorporation (cell cycle analysis) relative to DMSO/vehicle control [3]	live cell count relative to vehicle control [3]
CC(C)(C)NS(=O)(=O)c1cccc(NC(=O)c2ccc(S(=O)(=O)NC(C)(C)C)cc2N2CCC3(CC2)CC3)c1 [Compound C9, 4-(N-(tert-butyl)sulfamoyl)-N-(3-(N-(tert-butyl)sulfamoyl)phenyl)-2-(6-azaspiro[2.5]octan-6-yl)benzamide]	0.021	> 450	0.18	about the same; also recorded: minimal diminution in BrdU incorporation	little to no effect; also recorded: comparable cell counts
CC(C)(CO)Nc1ccc(C(=O)Nc2cccc(S(=O)(=O)C3CCCC3)c2)c(N2CCC3(CC2)CC3)n1 [Compound C11, N-(3-(cyclopentylsulfonyl)phenyl)-6-((1-hydroxy-2-methylpropan-2-yl)amino)-2-(6-azaspiro[2.5]octan-6-yl)nicotinamide]	0.047	> 70	0.07	about the same; also recorded: minimal diminution in BrdU incorporation	little to no effect; also recorded: comparable cell counts
